Source: ChEMBL document CHEMBL2073789, “Reversal of P-glycoprotein mediated multidrug resistance by a newly synthesized 1,4-benzothiazipine derivative, JTV-519” (Cancer Lett, 2002)

Experiments:
[1] = biological target: ATP-dependent translocase ABCB1 (Homo sapiens, UniProt P08183); experiment: TP_TRANSPORTER: inhibition of Adriamycin efflux (Adriamycin: 10 uM, JTV-519: 10 uM) in K562/MDR cells; format: functional, cell-based
[2] = biological target: Multidrug resistance-associated protein 1 (MRP1) (Homo sapiens, UniProt P33527); experiment: TP_TRANSPORTER: inhibition of 125I-azidoAG-A photoaffinity labeling (125I-azidoAG-A: 5 uM, JTV-519: 500 uM) in membrane from KB/MRP cells; format: functional, cell membranes, Membrane vesicle; design: scale not given: the % may be the effect or the level left; conditions: probe 125I-azidoAG-A (5 uM), read-out: Activity
Sequence of Multidrug resistance-associated protein 1 (MRP1) (P33527 whole entry): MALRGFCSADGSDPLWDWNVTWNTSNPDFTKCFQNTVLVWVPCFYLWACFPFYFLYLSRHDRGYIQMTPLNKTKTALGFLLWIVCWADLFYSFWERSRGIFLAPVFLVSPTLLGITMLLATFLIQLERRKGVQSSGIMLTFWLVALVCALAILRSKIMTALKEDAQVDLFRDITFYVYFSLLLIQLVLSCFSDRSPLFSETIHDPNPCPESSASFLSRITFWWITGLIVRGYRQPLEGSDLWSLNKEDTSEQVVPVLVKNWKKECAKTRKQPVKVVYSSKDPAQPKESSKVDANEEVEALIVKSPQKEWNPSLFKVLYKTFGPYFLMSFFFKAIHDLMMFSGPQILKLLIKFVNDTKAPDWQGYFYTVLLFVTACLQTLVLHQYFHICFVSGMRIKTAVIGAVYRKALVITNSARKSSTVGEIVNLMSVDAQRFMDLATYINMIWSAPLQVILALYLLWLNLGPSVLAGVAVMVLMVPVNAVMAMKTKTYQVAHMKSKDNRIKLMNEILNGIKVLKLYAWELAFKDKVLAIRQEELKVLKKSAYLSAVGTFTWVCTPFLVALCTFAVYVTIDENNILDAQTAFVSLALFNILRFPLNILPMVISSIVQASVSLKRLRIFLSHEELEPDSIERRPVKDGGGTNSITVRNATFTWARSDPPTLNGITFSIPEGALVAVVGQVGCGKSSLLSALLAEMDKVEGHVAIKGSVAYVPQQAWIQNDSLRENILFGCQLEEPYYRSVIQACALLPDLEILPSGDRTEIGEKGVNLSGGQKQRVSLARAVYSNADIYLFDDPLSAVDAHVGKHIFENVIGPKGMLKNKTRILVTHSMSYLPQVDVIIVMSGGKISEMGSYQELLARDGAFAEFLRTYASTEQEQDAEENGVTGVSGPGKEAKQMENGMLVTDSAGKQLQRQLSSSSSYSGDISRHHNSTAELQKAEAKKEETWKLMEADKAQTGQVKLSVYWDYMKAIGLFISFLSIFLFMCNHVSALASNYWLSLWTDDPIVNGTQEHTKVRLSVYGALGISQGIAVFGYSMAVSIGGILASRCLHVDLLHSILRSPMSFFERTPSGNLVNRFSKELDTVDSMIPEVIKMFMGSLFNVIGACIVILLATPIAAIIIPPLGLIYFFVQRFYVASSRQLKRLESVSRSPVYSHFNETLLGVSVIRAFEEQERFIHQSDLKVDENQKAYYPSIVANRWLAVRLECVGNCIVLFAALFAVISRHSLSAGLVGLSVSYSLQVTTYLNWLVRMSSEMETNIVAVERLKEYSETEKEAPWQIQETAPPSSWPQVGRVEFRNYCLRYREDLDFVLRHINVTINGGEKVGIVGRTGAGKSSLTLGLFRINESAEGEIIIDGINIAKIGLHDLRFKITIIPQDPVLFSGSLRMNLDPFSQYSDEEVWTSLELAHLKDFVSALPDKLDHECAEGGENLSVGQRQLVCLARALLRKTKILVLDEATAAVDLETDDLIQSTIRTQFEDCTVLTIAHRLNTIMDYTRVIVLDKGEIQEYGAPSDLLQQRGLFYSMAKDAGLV

Sequence of ATP-dependent translocase ABCB1 (P08183 whole entry): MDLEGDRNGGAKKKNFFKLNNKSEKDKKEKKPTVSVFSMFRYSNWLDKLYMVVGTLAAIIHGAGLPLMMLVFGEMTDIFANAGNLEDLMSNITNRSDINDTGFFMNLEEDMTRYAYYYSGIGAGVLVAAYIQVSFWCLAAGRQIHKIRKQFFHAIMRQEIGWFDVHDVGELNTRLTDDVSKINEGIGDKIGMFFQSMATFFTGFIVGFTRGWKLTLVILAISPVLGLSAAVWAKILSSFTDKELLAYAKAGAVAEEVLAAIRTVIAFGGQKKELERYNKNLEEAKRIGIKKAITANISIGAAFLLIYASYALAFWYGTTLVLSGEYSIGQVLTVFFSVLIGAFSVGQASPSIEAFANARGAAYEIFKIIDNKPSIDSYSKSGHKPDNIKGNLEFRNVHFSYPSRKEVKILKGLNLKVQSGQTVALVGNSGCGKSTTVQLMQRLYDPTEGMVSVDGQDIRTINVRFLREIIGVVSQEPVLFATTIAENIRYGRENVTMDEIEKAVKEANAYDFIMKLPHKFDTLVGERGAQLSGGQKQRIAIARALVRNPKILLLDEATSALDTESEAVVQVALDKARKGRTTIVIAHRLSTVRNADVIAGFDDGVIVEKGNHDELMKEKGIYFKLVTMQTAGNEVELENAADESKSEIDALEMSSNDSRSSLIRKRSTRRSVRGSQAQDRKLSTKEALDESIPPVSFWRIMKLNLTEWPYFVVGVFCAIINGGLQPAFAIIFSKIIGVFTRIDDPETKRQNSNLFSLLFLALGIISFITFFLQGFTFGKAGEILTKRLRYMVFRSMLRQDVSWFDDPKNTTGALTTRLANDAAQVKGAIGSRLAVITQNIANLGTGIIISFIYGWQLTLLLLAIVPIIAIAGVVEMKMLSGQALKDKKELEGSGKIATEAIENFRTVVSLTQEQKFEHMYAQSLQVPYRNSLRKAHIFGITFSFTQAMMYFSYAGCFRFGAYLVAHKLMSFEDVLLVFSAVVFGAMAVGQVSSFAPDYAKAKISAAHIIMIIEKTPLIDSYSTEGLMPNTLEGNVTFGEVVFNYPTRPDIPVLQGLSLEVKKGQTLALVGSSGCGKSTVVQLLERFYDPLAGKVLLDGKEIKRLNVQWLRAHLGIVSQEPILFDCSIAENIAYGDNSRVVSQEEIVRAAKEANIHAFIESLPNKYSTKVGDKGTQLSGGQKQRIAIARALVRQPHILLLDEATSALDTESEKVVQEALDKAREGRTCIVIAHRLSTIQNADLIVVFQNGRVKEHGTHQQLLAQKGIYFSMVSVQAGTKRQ

Activity [1]: inhibitor [+] | activity at 500 µM [2]: 58%
Compound: COc1ccc2c(c1)CN(C(=O)CCN1CCC(Cc3ccccc3)CC1)CCS2
